Test results taken from ChEMBL document CHEMBL3044753, “Polyamines May Modulate Both G Protein-Coupled Receptors and G Proteins” (Med Chem Res, 2004).
pEC50: −log10 of the molar value. Calls of active or inactive are those of the source. No cut-off for these calls is given here.

Assays:
Left cardiac atrium [1] = assay: Negative ionotropic activity in electrically-paced Cavia porcellus (guinea pig) left atrium measured after 60 min by isometric transducer analysis in presence of AM 251; type: functional, tissue-based
Left cardiac atrium [2] = assay: Negative ionotropic activity in electrically-paced Cavia porcellus (guinea pig) left atrium measured after 60 min by isometric transducer analysis in presence of DPCPX; type: functional, tissue-based
Left cardiac atrium [3] = assay: Negative ionotropic activity in electrically-paced Cavia porcellus (guinea pig) left atrium measured after 60 min by isometric transducer analysis in presence of ANR 83; type: functional, tissue-based
Left cardiac atrium [4] = assay: Negative ionotropic activity in electrically-paced Cavia porcellus (guinea pig) left atrium measured after 60 min by isometric transducer analysis in presence of benzalkonium; type: functional, tissue-based
[5] = target: T1, Muscarinic acetylcholine receptor M1 (Homo sapiens) (UniProt P11229); assay: Allosteric modulation of Homo sapiens (human) recombinant muscarinic M1 receptor expressed in CHO cells assessed as inhibition of carbachol-induced [35S]GTPgammaS binding; type: functional, cell-based
T1 sequence (whole entry): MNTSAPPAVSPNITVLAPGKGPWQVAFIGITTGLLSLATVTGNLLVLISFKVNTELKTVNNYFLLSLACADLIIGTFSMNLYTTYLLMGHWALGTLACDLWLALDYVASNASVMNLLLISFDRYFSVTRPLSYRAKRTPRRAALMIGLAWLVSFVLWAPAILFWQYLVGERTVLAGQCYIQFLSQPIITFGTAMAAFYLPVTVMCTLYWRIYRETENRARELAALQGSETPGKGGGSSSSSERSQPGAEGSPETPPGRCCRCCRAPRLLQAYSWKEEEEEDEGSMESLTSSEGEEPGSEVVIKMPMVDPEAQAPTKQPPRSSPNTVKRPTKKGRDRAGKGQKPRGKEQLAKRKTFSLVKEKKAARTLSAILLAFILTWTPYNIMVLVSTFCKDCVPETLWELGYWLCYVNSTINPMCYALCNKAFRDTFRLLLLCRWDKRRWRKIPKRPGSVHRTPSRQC

[6] = target: T2, Muscarinic acetylcholine receptor M2 (Homo sapiens) (UniProt P08172); assay: Allosteric modulation of Homo sapiens (human) recombinant muscarinic M2 receptor expressed in CHO cells assessed as inhibition of N-[3H]methylscopalamine dissociation incubated at 1 hr post N-[3H]methylscopalamine addition measured after 5 min by filter binding assay; type: cell-based
T2 sequence (whole entry): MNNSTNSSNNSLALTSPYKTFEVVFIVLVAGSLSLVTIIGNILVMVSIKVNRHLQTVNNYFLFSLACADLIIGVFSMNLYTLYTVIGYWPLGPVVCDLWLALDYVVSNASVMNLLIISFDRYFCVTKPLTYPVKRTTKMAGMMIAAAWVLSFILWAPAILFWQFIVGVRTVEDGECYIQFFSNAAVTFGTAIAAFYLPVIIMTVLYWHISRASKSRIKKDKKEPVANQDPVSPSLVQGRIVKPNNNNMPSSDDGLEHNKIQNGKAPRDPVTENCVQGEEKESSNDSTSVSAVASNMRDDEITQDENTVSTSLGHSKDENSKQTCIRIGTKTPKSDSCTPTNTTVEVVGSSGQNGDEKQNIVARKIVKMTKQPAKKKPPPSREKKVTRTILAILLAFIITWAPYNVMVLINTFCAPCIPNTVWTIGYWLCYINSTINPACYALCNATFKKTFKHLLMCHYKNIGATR

[7] = target: T3, Muscarinic acetylcholine receptor M5 (Homo sapiens) (UniProt P08912); assay: Allosteric modulation of Homo sapiens (human) recombinant muscarinic M5 receptor expressed in CHO cells assessed as inhibition of carbachol-induced [35S]GTPgammaS binding; type: functional, cell-based
T3 sequence (whole entry): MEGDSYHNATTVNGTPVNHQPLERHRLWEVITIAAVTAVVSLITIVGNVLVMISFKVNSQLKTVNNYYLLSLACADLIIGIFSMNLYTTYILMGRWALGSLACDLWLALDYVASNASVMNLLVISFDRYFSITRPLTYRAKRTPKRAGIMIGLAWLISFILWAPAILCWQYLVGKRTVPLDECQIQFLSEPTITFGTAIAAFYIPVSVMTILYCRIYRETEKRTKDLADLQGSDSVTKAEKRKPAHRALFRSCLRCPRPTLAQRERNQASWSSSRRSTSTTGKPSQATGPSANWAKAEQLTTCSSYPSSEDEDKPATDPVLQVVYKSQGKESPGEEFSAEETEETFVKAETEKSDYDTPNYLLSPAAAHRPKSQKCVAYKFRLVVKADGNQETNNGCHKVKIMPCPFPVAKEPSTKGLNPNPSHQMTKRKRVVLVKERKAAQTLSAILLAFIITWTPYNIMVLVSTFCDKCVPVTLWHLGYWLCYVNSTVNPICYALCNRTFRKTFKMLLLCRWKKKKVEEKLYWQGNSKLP

[8] = target: Muscarinic acetylcholine receptor M3 (Homo sapiens) (UniProt P20309); assay: Allosteric modulation of Homo sapiens (human) recombinant muscarinic M3 receptor expressed in CHO cells assessed as inhibition of carbachol-induced [35S]GTPgammaS binding; type: functional, cell-based
Right cardiac atrium [9] = assay: Negative ionotropic activity in electrically-paced Cavia porcellus (guinea pig) right atrium measured after 60 min by isometric transducer analysis in presence of dihydroergocristine; type: functional, tissue-based
Right cardiac atrium [10] = assay: Negative ionotropic activity in electrically-paced Cavia porcellus (guinea pig) right atrium measured after 60 min by isometric transducer analysis in presence of DPCPX; type: functional, tissue-based
[11] = target: T4, Muscarinic acetylcholine receptor M4 (Homo sapiens) (UniProt P08173); assay: Binding affinity to Homo sapiens (human) recombinant muscarinic M4 receptor expressed in CHO cells assessed as [35S]GTPgammaS binding; type: functional, cell-based
T4 sequence (whole entry): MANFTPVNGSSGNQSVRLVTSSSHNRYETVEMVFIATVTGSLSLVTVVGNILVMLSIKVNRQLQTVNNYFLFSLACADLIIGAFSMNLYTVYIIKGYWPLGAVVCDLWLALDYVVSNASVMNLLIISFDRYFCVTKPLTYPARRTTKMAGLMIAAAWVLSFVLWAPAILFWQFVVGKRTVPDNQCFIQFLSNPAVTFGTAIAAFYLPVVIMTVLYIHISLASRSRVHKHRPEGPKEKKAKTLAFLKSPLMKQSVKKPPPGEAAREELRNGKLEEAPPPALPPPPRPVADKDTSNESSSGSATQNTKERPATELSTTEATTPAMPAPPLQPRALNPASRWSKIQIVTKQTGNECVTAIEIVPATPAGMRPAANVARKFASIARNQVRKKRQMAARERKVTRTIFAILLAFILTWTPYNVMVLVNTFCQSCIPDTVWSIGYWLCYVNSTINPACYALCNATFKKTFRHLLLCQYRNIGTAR

[12] = target: T2, Muscarinic acetylcholine receptor M2 (Homo sapiens); assay: Binding affinity to Homo sapiens (human) recombinant muscarinic M2 receptor expressed in CHO cells assessed as [35S]GTPgammaS binding; type: functional, cell-based
[13] = target: T1, Muscarinic acetylcholine receptor M1 (Homo sapiens); assay: Binding affinity to Homo sapiens (human) recombinant muscarinic M1 receptor expressed in CHO cells assessed as [35S]GTPgammaS binding; type: functional, cell-based
Right cardiac atrium [14] = assay: Negative […] activity in electrically-paced Cavia porcellus (guinea pig) right atrium assessed as effect on force measured after 60 min by isometric transducer analysis in absence of benextramine/4-DAMP mustard relative to N-dodecyl lysine amide; type: functional
Left cardiac atrium [15] = assay: Negative ionotropic activity in electrically-paced Cavia porcellus (guinea pig) left atrium measured after 60 min by isometric transducer analysis in absence of benextramine/4-DAMP mustard; type: functional, tissue-based; settings: 1 h

Sequence of Muscarinic acetylcholine receptor M3 (Homo sapiens) (P20309 whole entry, looked up): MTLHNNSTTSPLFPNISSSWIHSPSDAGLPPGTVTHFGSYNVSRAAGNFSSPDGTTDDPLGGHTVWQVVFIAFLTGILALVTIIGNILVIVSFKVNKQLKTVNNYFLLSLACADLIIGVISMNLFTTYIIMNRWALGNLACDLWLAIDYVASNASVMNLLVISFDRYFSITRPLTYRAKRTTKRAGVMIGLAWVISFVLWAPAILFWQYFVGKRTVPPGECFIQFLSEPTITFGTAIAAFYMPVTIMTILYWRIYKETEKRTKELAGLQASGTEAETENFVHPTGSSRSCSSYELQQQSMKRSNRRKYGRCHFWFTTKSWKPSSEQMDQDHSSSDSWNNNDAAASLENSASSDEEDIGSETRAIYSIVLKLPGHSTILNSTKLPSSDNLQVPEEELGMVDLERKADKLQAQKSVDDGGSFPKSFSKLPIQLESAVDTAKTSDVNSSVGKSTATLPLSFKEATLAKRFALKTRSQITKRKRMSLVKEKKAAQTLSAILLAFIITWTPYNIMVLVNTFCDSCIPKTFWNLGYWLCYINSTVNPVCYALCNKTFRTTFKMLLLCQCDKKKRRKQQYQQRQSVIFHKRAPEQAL

Structure (SMILES)	Activity (Left cardiac atrium [1])	Activity (Left cardiac atrium [2])	Activity (Left cardiac atrium [3])	Activity (Left cardiac atrium [4])	Activity [5]	INH [6]	Activity [7]	Activity [8]	Activity (Right cardiac atrium [9])	Activity (Right cardiac atrium [10])	Activity [11]	Activity [12]	Activity [13]	Efficacy (Right cardiac atrium [14])	pEC50 (Left cardiac atrium [15])
COc1ccccc1CN1CCC(C2CCN(C(=O)CCCCCCC(=O)N3CCC(C4CCN(Cc5ccccc5OC)CC4)CC3)CC2)CC1 [PIPERTRAMINE AMIDE]	Active	Active	Active	inactive	Active	1.71 µM	Active	Active	Active	Active	inactive	inactive	inactive	78%	8.51
COc1ccccc1CN1CCC(C2CCN(CCCCCCCCN3CCC(C4CCN(Cc5ccccc5OC)CC4)CC3)CC2)CC1 [PIPERTRAMINE]	Active	Active	Active	inactive	Active	1.57 µM	Active	Active	Active	Active	inactive	inactive	inactive	71%	9.70
